Results published in patent publication US8283366B2, “Derivatives of pyridoxine for inhibiting HIV integrase” (Ambrilia Biopharma, Inc., priority 2010, dated 2012).
Where two headings read alike, the source gives them in different places.

Assays:
[1] = molecular target: T1, recombinant HIV-1 integrase (Human immunodeficiency virus type 1 group M subtype B, UniProt P04585); assay: Integrase strand transfer assay; type: biochemical; conditions: compounds added after assembly, 10% DMSO, read-out: ST IC50
T1 construct: recombinant HIV-1 integrase
Protocol: IC50 was determined for the compounds of the inventions based on data generated in strand transfer assays. The IC50 is a measure of the ability of the compounds tested to inhibit the integration of 3′-processed oligonucleotides by recombinant HIV-1 integrase.
Strand transfer assays were performed essentially as described in Hazuda, D. J.; Felock, P.; Hastings, J. C.; Pramanik, B.; Wolfe, A. J. Virol. 1997, 71, 7005-7011). Donor DNA (1.5 pmol/well), biotinylated on the 5′ end of the strand processed by integrase, was immobilized onto streptavidin-coated microtiter plates. Recombinant integrase (250 ng/well) was assembled onto the immobilized donor oligonucleotide in reaction buffer (20 mM Hepes, pH 7.6, 5 mM B-mercaptoethanol, 50 ug/mL bovine serum albumin) containing 30 mM MnCl2. Excess enzyme was removed, and the complexes were washed extensively prior to the addition of the target DNA substrate. The target DNA (0.75 pmoles/well) substrate was labeled on each 3′ end with FITC. After strand transfer, the FITC-labeled products were detected using an anti-FITC antibody conjugated with alkaline phosphatase (Roche) and a chemi-luminescent substrate (Tropix CSPD with Sapphire II enhancer, Applied Biosystems). The assay was performed in a final concentration of 10% DMSO. To specifically evaluate inhibition of strand transfer, compounds were added after assembly, just prior to the addition of the target DNA.
The results of the integrase strand transfer assay are reported as IC50 values. IC50 values were determined using a sigmoidal dose-response equation. The formula used for calculating % inhibition was: % Inhibition=[1−(sample counts/average of positive control)]*100.

NL4.3 virus = assay: Multi-cycle antiviral activity without and with human serum, p24 ELISA; conditions: for Fold-change with HS: EC50 with 40% HS versus 10% FBS alone; for EC50: Human immunodeficiency virus 1, 144 h
Protocol: The multi-cycle antiviral activity in the absence and presence of human serum was determined by p24 ELISA measurement after 6 days of NL4.3 virus infection.

wild type NL-4.3 = assay: Multi-cycle infection assay in MT-4 cells, MTT cytoprotection readout; type: cell-based, HIV-1; conditions: read-out: EC50 (nM) multi-cycle
Protocol: The antiviral efficacies of the integrase inhibitor compounds of the invention were evaluated based on EC50 measures obtained from two different in vitro HIV infection assay using cultured MT-4 cells: (1) a multi-cycle infection where cells were infected with wild type NL-4.3) and (2) a single-cycle infection where the cells were infected with a luciferase-bearing, envelope defective (env-) NL-4.3 virus pseudotyped with HIV-1 env (HXBc2.
The incubation period for the multi-cycle infection assay was 6 days. Cell viability (cytoprotection) and EC50 were determined using the colorimetric MTT assay (A. J. Japour et al, Antimicrobial Agents and Chemotherapy, 37, 1095-1101, 1993 and R. Pauwels et al. Journal of Virological Methods, 20, 309-321, 1988).

[2] = read-out: EC50 (uM) 10% FBS + 40% HS
[3] = Human immunodeficiency virus 1, MT4, 144 h, MT-4 cells, 6 days incubation, MTT

SMILES	IC50 [1] [nM]	EC50 (wild type NL-4.3; [3]) [nM]	other results
O=C(NO)c1ncc([C@H](O)c2ccc(F)c(Cl)c2)c(CO)c1O [Example 1, (R)-5-((3-Chloro-4-fluorophenyl)(hydroxy)methyl)-N,3-dihydroxy-4-(hydroxymethyl)picolinamide]	56	4	Fold-change with HS (NL4.3 virus): 1; EC50 (NL4.3 virus; read-out: EC50 (uM) 10% FBS): 0.006 µM; EC50 (NL4.3 virus; [2]): 0.006 µM
O=C(NO)c1ncc(C(O)c2ccc(F)cc2)c(CO)c1O (stereo not drawn) [Example 3, 5-((4-fluorophenyl)(hydroxy)methyl)-N,3-dihydroxy-4-(hydroxymethyl)picolinamide]		2	
Cc1nnc(C(=O)NC(C)(C)c2nc(C(=O)NCc3ccc(F)cc3)c(O)c(=O)n2C)o1 [Raltegravir, reference compound]			EC50 (NL4.3 virus; read-out: EC50 (uM) 10% FBS): 0.047 µM; EC50 (NL4.3 virus; [2]): 0.064 µM; EC50 (wild type NL-4.3; Human immunodeficiency virus 1, MT4, 144 h): 20 nM
O=C(NO)c1ncc(Cc2ccc(F)cc2)c(CO)c1O [Example 2, 5-(4-fluorobenzyl)-N,3-dihydroxy-4-(hydroxymethyl)picolinamide]	35	10	
Cc1c(Cc2ccc(F)cc2)cnc(C(=O)NO)c1O [Example 7, 5-(4-fluorobenzyl)-N,3-dihydroxy-4-methylpicolinamide]		21	
Cc1c(C(=O)c2ccc(F)cc2)cnc(C(=O)NO)c1O [Example 9, 5-(4-fluorobenzoyl)-N,3-dihydroxy-4-methylpicolinamide]		6680	
Cc1c(C(O)c2ccc(F)cc2)cnc(C(=O)NO)c1O (stereo not drawn) [Example 8, 5-((4-fluorophenyl)(hydroxy)methyl)-N,3-dihydroxy-4-methylpicolinamide]		8	
CN(O)C(=O)c1ncc(C(O)c2ccc(F)cc2)c(CO)c1O (stereo not drawn) [Example 5, 5-((4-fluorophenyl)(hydroxy)methyl)-N,3-dihydroxy-4-(hydroxymethyl)-N-methylpicolinamide]		421	
Cc1c(/C(=N/O)c2ccc(F)cc2)cnc(C(=O)NO)c1O [Example 10, (E)-5-((4-fluorophenyl)(hydroxyimino)methyl)-N,3-dihydroxy-4-methylpicolinamide]		49	
O=C(NO)c1ncc([C@@H](O)c2ccc(F)c(Cl)c2)c(CO)c1O [Example 11, (S)-5-((3-Chloro-4-fluorophenyl)(hydroxy)methyl)-N,3-dihydroxy-4-(hydroxymethyl)picolinamide]	23	2	Fold-change with HS (NL4.3 virus): 1; EC50 (NL4.3 virus; read-out: EC50 (uM) 10% FBS): 0.001 µM; EC50 (NL4.3 virus; [2]): 0.001 µM
CONC(=O)c1ncc(C(O)c2ccc(F)cc2)c(CO)c1O (stereo not drawn) [Example 6, 5-((4-fluorophenyl)(hydroxy)methyl)-3-hydroxy-4-(hydroxymethyl)-N-methoxypicolinamide]		74	
O=C(O)C(O)=CC(=O)c1cc(OCc2ccccc2)cc(OCc2ccccc2)c1 [Example L-708906, reference compound]	45		EC50 (wild type NL-4.3; MT-4 cells, 6 days incubation, MTT): 5800 nM
